From patent US20210030022A1, “NOVEL USE OF SUBSTITUTED CHROMAN-6-OLS” (DSM IP ASSETS B.V., priority 2018, published 2021)

Columns and labels:
[1] = Oil Stability Index (OSI) in fish oil, Example 13; conditions: for antioxidant activity (OSI) in fish oil compared with MNT: Example 13, 0.5 and 2 mg/g; for OSI: Table 28, FG30TG fish oil, 80° C.; for Protection Factor (%): Table 34, fish oil (80° C.)
Experimental: The compounds of formulae (3) and (7) were used in both fish and algal oils to see their antioxidant effect in these oils. Antioxidant effect was determined using mainly the Oil Stability Index (OSI). Two concentration levels were used: 0.5 mg/g (low level) and 2 mg/g (high level), respectively, have been added to 5 g of oil and used in the Oxidative Stability Instrument operated at 80° C. with the continuous air flow rate at ˜40 psi. All samples were run in duplicate. The Protection Factors (PF) for each compound, as percentage, in oil were calculated as, [formula]

[2] = Oxipres antioxidant efficacy value (EV) in poultry meal; conditions: Oxipres 70° C., 5 bar O2, equimolar to BHT; EV relative to BHT (EV=1)
Experimental: (§1) Oxidative stability was assessed using an Oxipres (Mikrolab Aarhus A/S, Hojbjerg, Denmark). The ML OXIPRES® is designed to monitor the oxidation of heterogeneous products. Consumption of oxygen results in a pressure drop which is measured by means of pressure transducers. The samples are heated to accelerate the process and shorten the analysis time (Mikrolab Aarhus 2012).
(§2) Sample weights were 50 g. They were loaded into the Oxipres vessels and placed inside the stainless-steel pressure vessel and sealed. The pressure vessels were purged with pure oxygen and filled to an initial oxygen pressure of 5 bar and maintained at 70° C. during measurement (D. Ying, L. Edin, L. Cheng, L. Sanguansri, M. A. Augustin, LWT—Food Science and Technology 2015, 62, 1105-1111: “Enhanced oxidative stability of extruded product containing polyunsaturated oils.”).
(§3) The oxygen pressure was recorded as function of time. After sample load and temperature rise the pressure in the device is increasing within 10 hours up to the starting pressure. Thereafter it is decreasing. Consequently, the starting pressure is considered as being the pressure after 10 hours. The analysis ends after 130 hours at 70° C. The oxygen consumption ‘O2’ of the tested sample is calculated as follows: […]
(§4) A factor of protection called ‘EV’ (Efficacy Value) was developed to quantify with a relative number (relative to BHT) the antioxidant effect of the tested candidates. EV was calculated as follows:
(§5) EV, being relative to BHT (3,5-di-tert-butyl-4-hydroxy-toluene) (EV=1), makes it possible to compare the antioxidant compounds in a defined feed application.
(§6) Each of the compounds of formulae (1) to (6) were mixed into each matrix 1, 2 or 3 (pet food, poultry meal, fish meal) in an equimolar ratio compared to BHT. Batches of 200 g feed were produced in order to handle a minimum of 30 mg of antioxidant. First, a 1% pre-dilution of the antioxidant with the feed material was made. Then this pre-dilution was added to the final batch, mixed, sieved (1.25 mm sieve) and mixed using a turbula mixer. Thereafter 55 g of the final batch were packed into polyethylene bags, and stored at 4° C. until start of the Oxipres assay. Spare sample were stored at 4° C. Compound of formula (3) was measured in all three matrices. Compound of formula (1) was measured in matrix 1 and 2. Compound of formula (2) was measured in matrix 2. Compounds of formulae (4), (5) and (6) were measured in matrix 3. An efficacy value 0.7 has been considered as acceptable, an efficacy value ≥ the efficacy value of alpha-tocopherol as good, and an efficacy value ≥ the efficacy value of BHT as very good.

[3] = Oxipres antioxidant efficacy value (EV) in fish meal; conditions: Oxipres 70° C., 5 bar O2, equimolar to BHT; EV relative to BHT (EV=1)
Experimental: as §1, §2, §3, §4, §5, §6

[4] = Oil Stability Index (OSI) in fish oil, Example 12; conditions: for OSI / Protection Factor (%): FG30TG fish oil
Experimental: (§7) The compounds of formulae (4), (6), (8) and (9) were evaluated primarily for their oxidative stability by the Oil Stability Index (OSI) measurements. Two different levels of these antioxidants (0.5 and 2 mg/g) were used in 5 g of natural fish oil (Product code: FG30TG) and used in the Oxidative Stability Instrument at 80° C. with the air flow rate of 40 psi. The solubility of different amounts and types of antioxidants used in OSI was checked before and after the application.
The compounds of formulae (6) and (9) (see Table 14 below), compound of formula (4) (see Table 15 below) and compound of formula (8) (see Table 16 below) were used at different times in the Oxidative Stability instruments under similar operational conditions used for fish oil evaluations. MNT and the oil without any antioxidants (“Blank”) were always used to compare. Also, the synergistic effect of only oil soluble compounds with ascorbyl palmitate was determined using the OSI values. The polymers generated at the end of the experiment were determined by LC (LC=liquid chromatography).
The Protection Factors (PF) for each compound in oil were calculated in percentage as: […]

Solubility in fish oil = format: physicochemical
Experimental: as §7, with “application. […]” for “application.”

[5] = Oil Stability Index (OSI) in crude algal oil, Example 13; conditions: for OSI: Table 33, crude algal oil (contained about 1.6 mg/g MNT prior to use), 80° C.; for Protection Factor (%): Table 35, crude algal oil (80° C.)
Experimental: The compounds of formulae (3) and (7) were used in both fish and algal oils to see their antioxidant effect in these oils. Antioxidant effect was determined using mainly the Oil Stability Index (OSI).
Two concentration levels were used: 0.5 mg/g (low level) and 2 mg/g (high level), respectively, have been added to 5 g of oil and used in the Oxidative Stability Instrument operated at 80° C. with the continuous air flow rate at ˜40 psi. All samples were run in duplicate. The Protection Factors (PF) for each compound, as percentage, in oil were calculated as,
The Oil Stability Indices (OSI) of crude algal oil with levels of 0.5 mg/g and 2 mg/g of compounds of formulae (3) or (7) are shown in Table 33.

[6] = Storage stability in fish oil (PV, p-AV), Example 13; conditions: storage at 25° C.
Experimental: A storage stability study was performed to compare the variation of primary oxidation products, the hydroperoxides, generated during oxidation, measured in terms of peroxide value (PV) and the secondary oxidation products which were measured and determined as anisidine reactive substances or p-anisidine value (p-AV) of oil samples containing these compounds.
The two different concentrations of compounds of formulae (3) and (7) were used for the storage stability study. Each compound and MNT were added, each individually, to 40 g of fish oil samples in 60 ml amber bottles at 0.5 mg/g and 2 mg/g levels, thoroughly mixed and stored at ambient temperature for 19 days. All sample bottles were stored open to air, away from light. […] Peroxide values (PV) and p-anisidine values (p-AV) were determined at different times for 19 days.

[7] = Storage stability in fish oil (PV, p-AV, CD), Example 12; conditions: FG30TG, 2 mg/g
Experimental: Tables 25, 26 and 27 show the PV (peroxide value), p-AV (p-anisidine value) and CD (Conjugated dienoic acid %) of the fish oil samples stabilized with compounds of formulae (6), (8) and (9), respectively.
For the storage stability study oil soluble compounds were used in fish oil at 2 mg/g level only. […] There was no considerable variation in p-AV and CD (Tables 26-27) during the storage.

## 6-Hydroxy-7-Methoxy-2,2-Dimethyl-Chroman-4-One [Compound of formula (10)]
[1]
  antioxidant activity (OSI) in fish oil compared with MNT: comparable antioxidant activity to MNT

## CC1CCc2cc(O)ccc2O1 (stereo not shown) [Compound of formula (2), 2-methyl-chroman-6-ol]
[2]
  EV in poultry meal: 1.09

## COc1cc2c(cc1O)CCC(C)(C)O2 [Compound of formula (4), 7-Methoxy-2,2-Dimethyl-6-Chromanol]
[3]
  EV in Fish meal: 1.05
[4]; Table 15, 80° C., 0.5 mg/g
  OSI: 4.98 h
[4]; Table 15, 80° C., 2 mg/g
  OSI: 5.95 h
[4]; Table 18, 0.5 mg/g
  Protection Factor (%): 4.74%
[4]; Table 18, 2 mg/g
  Protection Factor (%): 25.26%
[4]; fish oil, Example 12, same level of MNT
  antioxidant effect (OSI) in fish oil compared with MNT: lower OSI values than those of MNT

## Cc1c(C)c2c(c(C)c1O)CCC(C)(C)O2 [Compound of formula (5), 2,2,5,7,8-pentamethyl-chroman-6-ol]
[3]
  EV in Fish meal: 1.08

## CC(C)CCCC1(C)CCc2cc(O)ccc2O1 (stereo not shown) [Compound of formula (7), 2-(4-methylpentyl)-2-methyl-chroman-6-ol]
[1]; 0.5 mg/g
  OSI: 6.15 h
  Protection Factor (%): 23%
[1]; 2 mg/g
  OSI: 7.23 h
  Protection Factor (%): 44.5%
[1]
  antioxidant activity (OSI) in fish oil compared with MNT: comparable in activity with MNT
Solubility in fish oil; fish oil, 0.5 and 2 mg/g, mixed around 40° C. to dissolve completely
  Solubility in oil: not readily soluble in oil
[5]; 0.5 mg/g
  OSI: 16.38 h
  Protection Factor (%): 9.2%
[5]; 2 mg/g
  OSI: 18.53 h
  Protection Factor (%): 23.5%
[6]; 0.5 mg/g level, 1 day
  Peroxide values (PV, meq/kg): 1 meq/kg
  p-Anisidine value (p-AV): 9.5
[6]; 0.5 mg/g level, 5 days
  Peroxide values (PV, meq/kg): 2 meq/kg
  p-Anisidine value (p-AV): 9.8
[6]; 0.5 mg/g level, 8 days
  Peroxide values (PV, meq/kg): 6.4 meq/kg
  p-Anisidine value (p-AV): 11.1
[6]; 0.5 mg/g level, 14 days
  Peroxide values (PV, meq/kg): 11.8 meq/kg
  p-Anisidine value (p-AV): 12.4
[6]; 0.5 mg/g level, 19 days
  Peroxide values (PV, meq/kg): 19.5 meq/kg
  p-Anisidine value (p-AV): 12.9
[6]; 0.5 mg/g level, Initial
  Peroxide values (PV, meq/kg): 1 meq/kg
  p-Anisidine value (p-AV): 9.4
[6]; 2 mg/g level, 1 day
  Peroxide values (PV, meq/kg): 1 meq/kg
  p-Anisidine value (p-AV): 9.3
[6]; 2 mg/g level, 5 days
  Peroxide values (PV, meq/kg): 1.9 meq/kg
  p-Anisidine value (p-AV): 9.3
[6]; 2 mg/g level, 8 days
  Peroxide values (PV, meq/kg): 8.2 meq/kg
  p-Anisidine value (p-AV): 11.1
[6]; 2 mg/g level, 14 days
  Peroxide values (PV, meq/kg): 16.4 meq/kg
  p-Anisidine value (p-AV): 11.9
[6]; 2 mg/g level, 19 days
  Peroxide values (PV, meq/kg): 27.3 meq/kg
  p-Anisidine value (p-AV): 12.9
[6]; 2 mg/g level, Initial
  Peroxide values (PV, meq/kg): 1 meq/kg
  p-Anisidine value (p-AV): 9.4

## CC(C)CCCC(C)CCCC1(C)CCc2cc(O)ccc2O1 (stereo not shown) [Compound of formula (8), 2-(4,8-dimethylnonyl)-2-methyl-chroman-6-ol]
[7]; 4 days
  CD (conjugated dienoic acid in %): 0.6%
  PV (peroxide value): 1.6
  p-AV (p-anisidine value): 10.3
[7]; 6 days
  CD (conjugated dienoic acid in %): 0.6%
  PV (peroxide value): 1.8
  p-AV (p-anisidine value): 9.8
[7]; 8 days
  CD (conjugated dienoic acid in %): 0.2%
  PV (peroxide value): 3.1
  p-AV (p-anisidine value): 10
[7]; 11 days
  CD (conjugated dienoic acid in %): 0.7%
  PV (peroxide value): 3.7
  p-AV (p-anisidine value): 10.4
[7]; 13 days
  CD (conjugated dienoic acid in %): 0.7%
  PV (peroxide value): 8.7
  p-AV (p-anisidine value): 10.6
[7]; 15 days
  CD (conjugated dienoic acid in %): 0.8%
[7]; 17 days
  PV (peroxide value): 11.5
  p-AV (p-anisidine value): 11
[7]; Initial
  CD (conjugated dienoic acid in %): 0.7%
  PV (peroxide value): 0.9
  p-AV (p-anisidine value): 9.9
[4]; Table 16, 80° C., 0.5 mg/g
  OSI: 5.48 h
[4]; Table 16, 80° C., 2 mg/g
  OSI: 5.96 h
[4]; Table 19, 0.5 mg/g
  Protection Factor (%): 15.42%
[4]; Table 19, 2 mg/g
  Protection Factor (%): 25.89%
[4]; Table 21, 2 mg/g + 0.5 mg/g of AP (ascorbyl palmitate)
  OSI: 7.03 h
[4]; Table 21, 2 mg/g, without AP
  OSI: 6.58 h
[4]; Table 23, 2 mg/g + 0.5 mg/g of AP
  Protection Factor (%): 130%
[4]; Table 23, 2 mg/g, without AP
  Protection Factor (%): 145%
Solubility in fish oil; 0.5 mg/g
  Solubility in fish oil, 80° C.: soluble
  Solubility in fish oil, Room temp.: soluble
Solubility in fish oil; 2.0 mg/g
  Solubility in fish oil, 80° C.: soluble
  Solubility in fish oil, Room temp.: soluble
